Assay: Solubility of 3α-OH-5β-pregnan-20-one in SBE-β-CD (cyclodextrin) solution
Type: physicochemical
Method: When utilizing sulfobutylether-β-cyclodextrin (SBE-3-CD) oral compositions including solubilized or semi solid 3α-OH-5β-pregnan-20-one, it may be challenging to load proper amounts of 3α-OH-5β-pregnan-20-one so as to deliver effective serum levels of 3α-OH-5β-pregnan-20-one due to limitations with respect to 3α-OH-5β-pregnan-20-one solubility in various cyclodextrin solutions including SBE-β-CD (e.g. only ˜6 mg/ml of 3α-OH-5β-pregnan-20-one solubility in 24% w/v non-encapsulated SBE-β-CD solution). The solubilized fraction of 3α-OH-5β-pregnan-20-one began to decline, as observed by precipitation, when 3α-OH-5β-pregnan-20-one concentration was above 8 mg/ml. The amount of 3α-OH-5β-pregnan-20-one in the cyclodextrin solution can only be enabled by about 0.6% w/w loading amount of the composition fill. Moreover, high cyclodextrin amounts required to solubilize 3α-OH-5β-pregnan-20-one also present safety concerns. In some aspects, the compositions and dosage forms of this invention can comprise higher 3α-OH-5β-pregnan-20-one loading amounts than ones formulated in non-encapsulated SBE-β-CD or any cyclodextrin solution composition.

CC(=O)[C@H]1CC[C@H]2[C@@H]3CC[C@@H]4C[C@H](O)CC[C@]4(C)[C@H]3CC[C@]12C [3α-OH-5β-pregnan-20-one]
3α-OH-5β-pregnan-20-one concentration above which the solubilized fraction began to decline, as observed by precipitation (cyclodextrin (SBE-β-CD) solution): above 8 mg/ml
loading amount of the composition fill enabled in the cyclodextrin solution (cyclodextrin solution): about 0.6 % w/w
3α-OH-5β-pregnan-20-one solubility (in 24% w/v non-encapsulated SBE-β-CD solution): ~6000 µg/mL

From US20230390304A1, “Method and Composition for Treating Epilepsy” (Lipocine Inc., priority 2022, published 2023)
